For assay [1], the species on record is Rattus norvegicus. Put plainly: NO radical scavenging activity assessed as inhibition of Ach-induced vasorelaxation in rat aorta at 0.01 uM. In kind it is functional.
Assay [2] is filed under the species Rattus norvegicus. Kind of assay: NO radical scavenging activity assessed as inhibition of Ach-induced vasorelaxation in rat aorta at 1 uM. In kind it is functional.
Assay [3] is filed under the species Rattus norvegicus. Put plainly: NO radical scavenging activity assessed as inhibition of Ach-induced vasorelaxation in rat aorta at 0.1 uM. It counts as functional.
For assay [4], the system named is Rattus norvegicus. Put plainly: Decrease in weight of dry thrombus in rat at 5 umol/kg. It counts as functional.
The species named for assay [5] is Oryctolagus cuniculus. Put plainly: Effect on ADP-induced platelet aggregation in rabbit platelet-rich plasma at 1 uM. In kind it is functional.
In assay [6] the test system is Rattus norvegicus. Kind of assay: Decrease in weight of wet thrombus in rat at 5 umol/kg. It counts as functional.
The species entered for assay [7] is Oryctolagus cuniculus. Put plainly: Effect on PAF-induced platelet aggregation in rabbit platelet-rich plasma at 1 uM. It counts as functional.
The subject of assay [8] is PC-12. Put plainly: H2O2 radical scavenging activity assessed in PC12 cells. The conditions noted are these: Rattus norvegicus. It counts as functional, cell-based.
The species named for assay [9] is Oryctolagus cuniculus. Put plainly: Effect on PAF-induced platelet aggregation in rabbit platelet-rich plasma at 10 uM. It counts as functional.
The species entered for assay [10] is Oryctolagus cuniculus. Put plainly: Effect on PAF-induced platelet aggregation in rabbit platelet-rich plasma at 0.1 uM. It counts as functional.
Assay [11] concerns PC-12. Kind of assay: NO radical scavenging activity assessed in PC12 cells. It counts as functional, cell-based. The settings on record: Rattus norvegicus.
For assay [12], the species on record is Oryctolagus cuniculus. Put plainly: Effect on ADP-induced platelet aggregation in rabbit platelet-rich plasma at 0.1 uM. It counts as functional.
Assay [13] is filed under the species Oryctolagus cuniculus. Put plainly: Effect on ADP-induced platelet aggregation in rabbit platelet-rich plasma at 10 uM. In kind it is functional.
Assay [14] has as its system PC-12. Put plainly: OH radical scavenging activity assessed in PC12 cells. In kind it is functional, cell-based. The conditions noted are these: Rattus norvegicus.

Numbered stars: 1 amine (or outer) side, 2 acyl side, 3 side chain; on linkers, the order of the positions; unused ones are H or OH. Square brackets hold non-standard residues; d marks the D form. Peptide text beside a SMILES is read from it. X1 = COc1cc(C2c3[nH]c4ccccc4c3CC(C(=O)[*:2])N2[*:1])cc(OC)c1O

A word on the inhibition: it is the drop in the measured response relative to a control, in per cent. As a reminder, the EC50 is the concentration giving half of the maximal effect. Low readings indicate greater potency, high ones weaker potency. For `COc1cc(C2N[C@H](C(=O)O)Cc3c2[nH]c2ccccc32)cc(OC)c1O` (some centres undefined), the inhibition worked out at 10.9% in assay [1], 79.9% in [2] and 57.2% in assay [3]. Further, the Activity in [4] worked out at 7.27 mg; in [5], 46.65%; in [6], 43.76 mg; in assay [7], 51.42%; in assay [9], 36.34%; in assay [10], 55.8%. In addition, the figures for the Activity in assay [12] and in [13] were 54.88% and 27.33%, respectively. Further, the half-maximal effective concentration (EC50) in [8] turned out to be 43.7 µM; in [11], 89.7 µM.
For `N=C(N)NCCC[C@H](N)C(=O)NCC(=O)N[C@@H](CC(=O)O)C(=O)N[C@@H](CO)C(=O)O`, the Activity in assay [4] was 7.62 mg; in [5], 39.62%; in [6], 42.9 mg; in assay [7] it was 36.47%; in assay [9], 22.03%; in assay [10], 56.69%. Besides, the Activity is recorded as 52.5% in [12] and 16.6% in assay [13].
Turning to `N=C(N)NCCC[C@H](N)C(=O)NCC(=O)N[C@@H](CC(=O)O)C(=O)N[C@@H](Cc1ccccc1)C(=O)O` (H-RGDF-OH), the Activity is listed as 4.05 mg in [4]; 22.71% in assay [5]; 26.68 mg in assay [6]; 24.02% in assay [7]; 7.73% in assay [9]; 40.39% in assay [10]. In addition, the results for the Activity in assay [12] and in [13] were 34.99% and 7.87%, respectively.
As for `CC(C)[C@H](NC(=O)[C@H](CC(=O)O)NC(=O)CNC(=O)[C@@H](N)CCCNC(=N)N)C(=O)O` (H-RGDV-OH), the Activity in [4] is on record as 6.43 mg; in assay [5], 29.61%; in assay [6], 35.6 mg; in assay [7], 34.84%; in [9], 20.01%; in assay [10] it was 55.07%. The Activity is 51.78% in assay [12] and 11.65% in [13].
For `COc1cc(C2NC(C(=O)N[C@@H](CCCN=C(N)N)C(=O)NCC(=O)N[C@@H](CC(=O)O)C(=O)N[C@@H](Cc3ccccc3)C(=O)O)Cc3c2[nH]c2ccccc32)cc(OC)c1O` (some centres undefined) (H-[X1]RGDF-OH), the values for the inhibition in [1], in assay [2] and in [3] were 25.4%, 90.9% and 73.3%, respectively. In addition, the Activity in assay [4] came out at 2.68 mg; in assay [5], 29.43%; in assay [6], 22.09 mg; in assay [7], 25.33%; in [9] it was 21.52%; in assay [10], 36.59%. Besides, the Activity was 38% in assay [12] and 13.11% in assay [13]. In addition, the EC50 stood at 67.9 µM in assay [8], 92.8 µM in [11] and 90.4 µM in assay [14].
As for `COc1cc(C2NC(C(=O)N[C@@H](CCCN=C(N)N)C(=O)NCC(=O)N[C@@H](CC(=O)O)C(=O)N[C@@H](CO)C(=O)O)Cc3c2[nH]c2ccccc32)cc(OC)c1O` (some centres undefined) (H-[X1]RGDS-OH), the inhibition in [1] stood at 12.8%; in assay [2], 91.9%; in assay [3], 60.7%. Further, the Activity in assay [4] is reported as 5 mg; in [5], 28.31%; in assay [6], 28.01 mg; in assay [7] it was 34.59%; in assay [9] it was 28.61%; in assay [10] it was 55.62%. Besides, the Activity in assay [12] is 49.37%; in [13] it was 11.33%. For the same compound, the values for the EC50 in assay [8], in assay [11] and in [14] were 30.6 µM, 87.6 µM and 95.4 µM, respectively.
Consider `COc1cc(C2NC(C(=O)N[C@@H](CCCN=C(N)N)C(=O)NCC(=O)N[C@@H](CC(=O)O)C(=O)N[C@H](C(=O)O)C(C)C)Cc3c2[nH]c2ccccc32)cc(OC)c1O` (some centres undefined) (H-[X1]RGDV-OH), for which the inhibition in assay [1] stood at 13.3%; in [2], 92.2%; in assay [3] it was 71.2%. Further, the Activity worked out at 4.85 mg in [4]; 29.6% in assay [5]; 29.05 mg in assay [6]; 35.8% in assay [7]; 25.88% in assay [9]; 54.06% in assay [10]. In addition, the Activity in assay [12] is listed as 50.2%; in assay [13], 14.38%. For the same compound, the EC50 in [8] amounted to 33.5 µM; in [11], 90.3 µM; in assay [14], 92.3 µM.

Values taken from ChEMBL document CHEMBL1149335, “Dual-acting agents that possess free radical scavenging and antithrombotic activities: design, synthesis, and evaluation of phenolic tetrahydro-beta-carboline RGD peptide conjugates” (Bioorg Med Chem Lett, 2006).
